Laboratory results from PMC9570207, “Pharmacokinetics of Myo-Inositol in a Wistar Rat Animal Model” (International Journal of Molecular Sciences, 2022).
Read-outs that look alike come from different tables or passages of the source.

How the values were obtained:
[1] = set-up: method as in PMID 32650579; conditions: cited from earlier work
[2] = system: angiotensin-converting enzyme; set-up: method as in PMID 33113433; conditions: cited from earlier work
[3] = rat, in vivo, po, 25 mg/kg; cited from earlier work
systolic blood pressure = system: systolic blood pressure; set-up: method as in PMID 33113433; conditions: 3 mg/kg, Wistar rats; cited from earlier work
[4] = system: alkaline phosphatases from bovine intestinal mucosa; set-up: method as in doi:10.1016/S0928-0987(97)00019-5; conditions: bovine intestinal alkaline phosphatase; cited from earlier work
[5] = Pharmacokinetics of myo-inositol in serum after oral gavage, one-compartment PK model; assay type: in vivo, Wistar rat; conditions: 2 g/kg oral
Method: The experiment was performed on male Wistar rats (n = 9). We used male Wistar rats in our study because hormone changes throughout the female estrus cycle may have caused female rats to react differently, making them unpredictable and providing variable results during repeated experiments. All rats were 6 weeks old and had no morphological features deviating from the standard Wistar animal model. Animals were housed in a temperature-controlled room with a 12 h light/dark cycle and free access to water and food. The study was conducted in compliance with the Local Ethics Committee for Animal Experiments in Olsztyn. Each animal received a solution of myo-inositol (2 g/kg) in distilled water by oral gavage (Agnthos, curved gastric probe, 16G, 3 mm, 75 mm tip). The animals were fasted before the administration of myo-inositol (12 h since the last meal). Food was allowed for 2 h after administration of the compound. Access to water was unlimited. In order to reduce the amount of blood collected from a single animal, the animals were divided into three groups (n = 3).
For removing of proteins, 160 μL of acetonitrile (containing […] of xylitol, as an internal standard) was added to 50 μL of rat plasma and the sample was shaken for 5 min (1300 rpm, Vortex Genie 2, Scientific Industries, Bohemia, NY, USA). After centrifugation (20,000× g at 4 °C for 10 min), the supernatant was transferred into glass chromatographic vials and concentrated in a speed vacuum evaporator to dryness. Dry residues were derivatized with a mixture of trimethylsilylimidazole (TMSI) and pyridine (1:1, v/v). TMS-derivatives of myo-inositol were analyzed by the high-resolution gas chromatography method on a gas chromatograph GC2010Plus (Shimadzu, Tokyo, Japan) with a capillary column ZEBRON ZB-1 (15 m length, 0.25 mm diameter and 0.1 μm film thickness, Phenomenex, Torrance, CA, USA). The injector temperature was 325 °C and the initial column oven temperature was 150 °C. Helium was used as a carrier gas (at a flow rate of 1.18 mL min^−1). Afterwards, the sample injection (1 μL, in a split ratio 10:1) was ramped sequentially to 200 °C at a rate of 20 °C min^−1, to 300 °C at 30 °C min^−1 and to 335 °C at 20 °C min^−1. The final temperature was held for 2.42 min and the total time of analysis was 10 min. The detector was maintained at 350 °C. Myo-inositol was quantified by using the standard: myo-inositol from Sigma. The content of myo-inositol was calculated from the standard curves of appropriate components.
The data fitting was performed with NONMEM software (Version 7.3.0; ICON Development Solutions, Ellicot City, MD, USA) and the Gfortran compiler 9.0. NONMEM runs were executed using Wings for NONMEM (WFN730; http://wfn.sourceforge.net). The NONMEM data processing and plots were performed in Matlab Software (Version 0.1; The MathWorks, Natick, MA, USA). The schematic representation of the PK model is given in Figure 4. dA/dt=−ka∗AA(0)=DPO dX/dt=k−CL/F/V/F∗A+ka∗AX(0)=C0∗V/F where A and X denote the amount of myo-inositol in the absorption and central compartment, F denotes bioavailability, DPO denotes an oral dose of myo-inositol, ka denotes absorption rate constant, kin denotes an endogenous input of myo-inositol, CL denotes clearance, V denotes volume of distribution, and C0 denotes endogenous concentration of myo-inositol. CL and V were estimated as apparent due to uncertain bioavailability (CL/F and V/F). The steady-state concentration of myo-inositol implies the following relationship: k=C0∗CL/F
The concentration of myo-inositol in serum is given by: C=X/V/F
The observed concentrations (Cobs) were related to model predictions through the following equation (proportional residual error model): Cobs=C∗(1+ε) where ε is a normal random variable with standard deviation σ.

[6] = 100 mg/kg oral, male Wistar rats, liver

SMILES: CO[C@H]1[C@H](O)[C@@H](O)[C@@H](O)[C@H](O)[C@@H]1O [DP, D-pinitol]
- Time at which plasma DP level became detectable ([1]; 100 mg/kg oral, 18 h food-deprived male Wistar rats, plasma): 10 min
- Time at which liver concentration became detectable [1, 6]: 30 min
- Time of peak liver concentration [1, 6]: 120 min
- Time of plasma peak ([1]; 100 mg/kg oral, male Wistar rats, plasma): 1 h
- Time of peak in liver ([1]; 500 mg/kg oral, Wistar rats, liver): 120 min
- Time of peak in plasma ([1]; 500 mg/kg oral, Wistar rats, plasma): 120 min
- Accumulation in the liver ([1]; oral DP, Wistar rats, liver): no accumulation was detected
- Half-life time, liver ([1]; oral DP, Wistar rats, liver): 2.57 h
- Half-life time, plasma ([1]; oral DP, Wistar rats, plasma): 1.8 h
- Time after which completely cleared ([1]; oral DP, Wistar rats): 6 h

SMILES: COC1[C@H](O)[C@H](O)C(O)[C@H](O)[C@H]1O (stereo partly drawn) [LB, L-(+)-bornesitol]
- Angiotensin-converting enzyme inhibition [2]: potent
- Dose proportionality of peak concentration and AUC [3]: non-linear pharmacokinetics
- Time to peak plasma concentration [3]: approximately 1 h
- half-life [3]: 1.202 to 2.0615 h
- Effect on systolic blood pressure (systolic blood pressure): reduced the systolic blood pressure

SMILES: O=P(O)(O)OC1[C@H](OP(=O)(O)O)[C@H](O)C(O)[C@H](O)[C@H]1OP(=O)(O)O (stereo partly drawn) [a-trinositol, d-myo-inositol 1,2,6-trisphosphate]
- Dephosphorylation by intestinal enzymes [4]: extensive dephosphorylation

SMILES: O[C@H]1[C@H](O)[C@@H](O)[C@H](O)[C@@H](O)[C@H]1O [myo-inositol]
- Evidence of harm from the dosage during the study ([5]; Wistar rats): no significant evidence of harm
- Time after which the level of MI started to drop ([5]; Wistar rats): 2 h
- Time of highest peak of MI after administration ([5]; Wistar rats): 1 h
- Serum level approximately after 24 h compared with before administration ([5]; Wistar rats, 24 h): still higher than before administration
- k el ([5]; male, rat, serum, secondary parameter, Wistar rats, read-out: Kel, Elimination rate constant, (CL/F)/(V/F) (converted)): 4.72e-05 s⁻¹
- half-life ([5]; male, rat, serum, secondary parameter, Wistar rats, read-out: T0.5, Biological half-life, ln(2)/kel (converted)): 4.08 h
- Mean MI in Rat Serum ([5]; rat 1A (ID:1), group 1, times 0, 0.25, 0.5, 1, 24 h): 45.69 µg/mL
- Mean MI in Rat Serum ([5]; rat 1B (ID:4), group 2, times 0, 2, 4, 8, 12, 24 h): 45.70 µg/mL
- Mean MI in Rat Serum ([5]; rat 1C (ID:7), group 3, times 0, 1.5, 36, 48 h): 46.23 µg/mL
- Mean MI in Rat Serum ([5]; rat 2A (ID:2), group 1, times 0, 0.25, 0.5, 1, 24 h): 60.00 µg/mL
- Mean MI in Rat Serum ([5]; rat 2B (ID:5), group 2, times 0, 2, 4, 8, 12, 24 h): 46.23 µg/mL
- Mean MI in Rat Serum ([5]; rat 2C (ID:8), group 3, times 0, 1.5, 36, 48 h): 49.38 µg/mL
- Mean MI in Rat Serum ([5]; rat 3A (ID:3), group 1, times 0, 0.25, 0.5, 1, 24 h): 57.46 µg/mL
- Mean MI in Rat Serum ([5]; rat 3B (ID:6), group 2, times 0, 2, 4, 8, 12, 24 h): 39.86 µg/mL
- Mean MI in Rat Serum ([5]; rat 3C (ID:9), group 3, times 0, 1.5, 36, 48 h): 38.33 µg/mL
- AUC, Area under concentration–time curve, F·D/CL ([5]; secondary parameter, Wistar rats): 2.34 mg·h/L/kg
